The source of these data is US6440986B2, “HIV Inhibiting pyrimidine derivatives” (Janssen Pharmaceutica, N.V., priority 1998, dated 2002).

One series has as its system HIV-1. In words: in vitro anti-HIV assay: inhibition of the HIV-induced cytopathic effect in MT-4 cells (MTT). In kind it is cell-based. The following applies: dose achieving 50% protection of HIV-infected MT-4 cells against cytopathic effect, OD 540 nm. The method, then:
A rapid, sensitive and automated assay procedure was used for the in vitro evaluation of anti-HIV agents. An […] T4-cell line, MT-4, which was previously shown (Koyanagi et al., Int. J. Cancer, 36, 445-451, 1985) to be highly susceptible to and permissive for HIV infection, served as the target cell line. Inhibition of the HIV-induced cytopathic effect was used as the end point. The viability of both HIV- and mock-infected cells was assessed spectrophotometrically via the in situ reduction of 3-(4,5-dimethylthiazol-2-yl)-2,5-diphenyltetrazolium bromide (MTT). […] The percent protection achieved by the compound in HIV-infected cells was calculated by the following formula: [formula]
(§1) whereby (ODT)HIV is the optical density measured with a given concentration of the test compound in HIV-infected cells; (ODC)HIV is the optical density measured for the control untreated HIV-infected cells: (ODC)MOCK is the optical density measured for the control untreated mock-infected cells; all optical density values were determined at 540 nm. […] The ratio of CC50 to IC50 was defined as the selectivity index (SI).
(Damage to the host cells serves as the signal in cytopathic effect assays.)

In series [1] the test system is MT-4 cells (mock-infected). In words: cytotoxicity in mock-infected MT-4 cells (MTT). In kind it is cell-based. The method, then:
A rapid, sensitive and automated assay procedure was used for the in vitro evaluation of anti-HIV agents. […] Inhibition of the HIV-induced cytopathic effect was used as the end point. The viability of both HIV- and mock-infected cells was assessed spectrophotometrically via the in situ reduction of 3-(4,5-dimethylthiazol-2-yl)-2,5-diphenyltetrazolium bromide (MTT). […] The percent protection achieved by the compound in HIV-infected cells was calculated by the following formula: [formula]
as §1

[2] abbreviates: 50% cytotoxic concentration, reduces absorbance of mock-infected MT-4 control by 50%, MTT, read-out: CC50.

Each structure is given as a SMILES string. Structures can show the parent of a compound that is named as a salt. Where two headings read alike, the source gives them in different places.

In turn, `N#Cc1ccc(Nc2nc(Cc3c(Cl)cccc3Cl)cc(NCCCCO)n2)cc1` [Compound 1] returned an IC50 in the series on HIV-1 of 0.027 µM. The molecule also had a CC50 in series [1] of 49.7 µM. In turn, `Nc1cc(Cc2c(Cl)cccc2Cl)nc(Nc2ccc(Br)cc2)n1` [Compound 27] came in with a 50% inhibitory concentration (IC50) with HIV-1 of 0.017 µM. Besides, the CC50 in series [1] (setting [2]) was over 20 µM. In the same order, the values of `Nc1cc(Cc2c(Cl)cccc2Cl)nc(Nc2ccccc2)n1` [Compound 37] are 0.443 µM and 33.4 µM. `Cc1cc(C#N)cc(C)c1Nc1ccnc(Nc2ccc(C#N)cc2)n1` [Compound 69, 4-[[2-[(cyanophenyl)amino]-4-pyrimidinyl]amino]-3,5-dimethylbenzonitrile] came in with an IC50 with HIV-1 of 0.0004 µM. The 50% cytotoxic concentration (CC50) in series [1] (setting [2]) turned out to be 4.7 µM.

In the series with HIV-1, `Nc1nc(Cc2c(Cl)cccc2Cl)cc(Nc2ccc(F)cc2)n1` [Compound 34] displayed an IC50 of 0.319 µM. Moreover, in series [1] (setting [2]), the CC50 is 57.8 µM. The molecule `CCCCCCCCCCCC(=O)Nc1cc(Cc2c(Cl)cccc2Cl)nc(Nc2ccc(C#N)cc2)n1` [Compound 18] yielded an IC50 in the series on HIV-1 of 2.1 µM. The molecule further had a CC50 in series [1] of 59.9 µM. The corresponding values for `Cc1cnc(Nc2ccc(C#N)cc2)nc1Nc1c(Br)cc(C(C)C)cc1Br` [Compound 88] are 0.0027 µM and 2.1 µM. `N#Cc1ccc(Nc2cc(Cc3c(Cl)cccc3Cl)nc(NCCCO)n2)cc1` [Compound 42] came in with an IC50 in the series on HIV-1 of 0.352 µM. For the same molecule, in series [1] (setting [2]), the CC50 was determined as 35.5 µM. `Cc1c(Cc2c(Cl)cccc2Cl)nc(N)nc1Nc1ccc(Br)cc1` [Compound 48] registered an IC50 with HIV-1 of 44.2 µM. In addition, the CC50 in series [1] (setting [2]) is over 100 µM. With `N#Cc1ccc(Nc2nccc(Nc3c(Cl)cc(C#N)cc3Cl)n2)cc1` [Compound 76], the 50% inhibitory concentration (IC50) with HIV-1 came out at 0.0033 µM. In series [1], this molecule had a CC50 of 5.2 µM.

`N#Cc1ccc(Nc2nccc(Sc3c(Cl)cccc3Cl)n2)cc1` [Compound 59]: in the series on HIV-1, it took 0.0012 µM to reach half-maximal inhibition (IC50). In series [1], this molecule had a CC50 of over 100 µM.

In the series with HIV-1, `COc1ccc(CCNc2cc(Cc3c(Cl)cccc3Cl)nc(Nc3ccc(C#N)cc3)n2)cc1` [Compound 10] showed an IC50 of 2.53 µM. The same molecule gave a half-maximal cytotoxic concentration (CC50) in series [1] of over 100 µM.

In turn, `CCCc1cc(Br)c(Nc2ccnc(Nc3ccc(C#N)cc3)n2)c(Br)c1` [Compound 79] yielded a 50% inhibitory concentration (IC50) in the series with HIV-1 of 0.0031 µM. Also, the CC50 in series [1] was 4.8 µM.

Molecule `Cc1cc(Br)cc(C)c1Nc1ccnc(Nc2ccc(C#N)cc2)n1` [Compound 56] returned an IC50 with HIV-1 of 0.0023 µM. In addition, in series [1], it took 1.9 µM to reach half-maximal cytotoxicity (CC50). In the series with HIV-1, `N#CCCNc1cc(Cc2c(Cl)cccc2Cl)nc(Nc2ccc(C#N)cc2)n1` [Compound 19] gave an IC50 of 0.006 µM. In addition, in series [1], it took 53.6 µM to reach half-maximal cytotoxicity (CC50). The corresponding values for `Cc1cc(C)c(Nc2ccnc(Nc3ccc(C(N)=O)c(N)c3)n2)c(C)c1` [Compound 101] are 0.053 µM and 29.5 µM. In the same order, the values of `N#Cc1ccc(Nc2nc(Cc3c(Cl)cccc3Cl)cc(NCC(O)c3ccccc3)n2)cc1` (centres unmarked) [Compound 4] are 0.315 µM and over 100 µM. As for `CNc1nc(Cc2c(Cl)cccc2Cl)cc(Nc2ccc(C#N)cc2)n1` [Compound 41], the IC50 with HIV-1 was 1.99 µM. In addition, the CC50 in series [1] (setting [2]) is 34.2 µM. `CCCc1cc(Br)c(Nc2nc(Nc3ccc(C#N)cc3)ncc2C)c(Br)c1` [Compound 87] displayed an IC50 in the series on HIV-1 of 0.0031 µM. Moreover, in series [1], the CC50 was determined as 2.2 µM. With `N#Cc1ccc(Nc2nccc(Nc3c(F)cc(Br)cc3Br)n2)cc1` [Compound 70], half-maximal inhibition in the series on HIV-1 (IC50) required 0.0006 µM. Also, in series [1], the CC50 amounted to 5.8 µM. For `Cc1c(N)nc(Nc2ccc(Br)cc2)nc1Cc1c(Cl)cccc1Cl` [Compound 49], the IC50 in the series on HIV-1 is 0.058 µM. Besides, the CC50 in series [1] (setting [2]) came to 45.2 µM. In the same order, the values of `Cc1cc(C)c(Nc2ccnc(Nc3ccc(C#N)cc3)n2)c(C)c1` [Compound 53, 4-[[4-[(2,4,6-trimethyl-phenyl)amino]-2-pyrimidinyl]amino]benzonitrile hydrochloride (1:1)] are 0.0006 µM and 1.3 µM. In the series with HIV-1, `CCCC(=O)Nc1cc(Cc2c(Cl)cccc2Cl)nc(Nc2ccc(C#N)cc2)n1` [Compound 22] gave an IC50 of 0.035 µM. The molecule further gave a CC50 in series [1] of 12.2 µM. As for `Cc1cc(C)c(Nc2ccnc(Nc3ccc(C#N)c(N)c3)n2)c(C)c1` [Compound 102], the IC50 with HIV-1 came out at 0.0082 µM. For the same molecule, the CC50 in series [1] (setting [2]) was 0.5 µM. In the series with HIV-1, `CC(C)OCCCNc1cc(Cc2c(Cl)cccc2Cl)nc(Nc2ccc(C#N)cc2)n1` [Compound 7] had an IC50 of 0.975 µM. The CC50 in series [1] is over 100 µM.

Turning to `N#Cc1ccc(Nc2nc(N)cc(Cc3c(Cl)cccc3Cl)n2)cc1` [Compound 23], in the series with HIV-1, the IC50 was determined as 0.001 µM. Further, half-maximal cytotoxicity in series [1] (CC50) was put at 47.9 µM. The corresponding values for `Cc1cc(C)c(Nc2ccnc(Nc3ccc(C#N)cc3N)n2)c(C)c1` [Compound 90] are 3.4 µM and 30.8 µM. With `Nc1cc(Cc2c(Cl)cccc2Cl)nc(Nc2ccc(Br)cn2)n1` [Compound 32], the half-inhibitory concentration (IC50) in the series with HIV-1 came out at 0.403 µM. For the same molecule, the 50% cytotoxic concentration (CC50) in series [1] (setting [2]) is over 100 µM. As for `Cc1cccc(C)c1Nc1ccnc(Nc2ccc(C#N)cc2)n1` [Compound 57], the midpoint of inhibition in the series on HIV-1, the IC50, lay at 0.0007 µM. Besides, the CC50 in series [1] was 0.8 µM. The corresponding values for `Cc1cc(C)c(N(C)c2ccnc(Nc3ccc(C#N)cc3)n2)c(C)c1` [Compound 71] are 0.0063 µM and 45.8 µM.

As for `Cc1cc(C#N)cc(C)c1Oc1ccnc(Nc2ccc(C#N)cc2)n1` [Compound 81], the IC50 with HIV-1 came to 0.0011 µM. The CC50 in series [1] was over 100 µM. `N#Cc1ccc(Nc2nc(Cc3c(Cl)cccc3Cl)cc(NCC(O)CO)n2)cc1` (centres unmarked) [Compound 9] had an IC50 with HIV-1 of 0.037 µM. Besides, the CC50 in series [1] was 58.6 µM. Take `CC(C)c1cc(Br)c(Nc2ccnc(Nc3ccc(C#N)cc3)n2)c(Br)c1` [Compound 62]: in the series with HIV-1, the half-maximal inhibitory concentration (IC50) was 0.0032 µM. Also, the CC50 in series [1] worked out at 8.7 µM.

With `Cc1cc(C)c(Nc2cc(N)nc(Nc3ccc(C#N)cc3)n2)c(C)c1` [Compound 94], the IC50 in the series with HIV-1 is 0.0022 µM. The molecule also gave a CC50 in series [1] of 11.1 µM. The corresponding values for `COc1cccc(CCNc2cc(Cc3c(Cl)cccc3Cl)nc(Nc3ccc(C#N)cc3)n2)c1` [Compound 8] are 8.15 µM and over 100 µM. In the same order, the values of `N#Cc1ccc(Nc2nccc(Oc3c(Cl)cc(Cl)cc3Cl)n2)cc1` [Compound 60] are 0.29 µM and over 100 µM. The corresponding values for `Cc1cc(C(C)(C)C)cc(C)c1Nc1ccnc(Nc2ccc(C#N)cc2)n1` [Compound 80] are 0.011 µM and 8.7 µM. The molecule `Cc1cc(C)c(Nc2nccc(Nc3ccc(C#N)cc3)n2)c(C)c1` [Compound 93] returned an IC50 with HIV-1 of 0.0035 µM. In addition, the midpoint of cytotoxicity in series [1], the CC50, lay at 48.1 µM. In the same order, the values of `N#Cc1ccc(Nc2nccc(NCc3ccccc3)n2)cc1` [Compound 104] are 0.0034 µM and 18.6 µM. Molecule `Cc1c(N)nc(Nc2ccc(CC#N)cc2)nc1Cc1c(Cl)cccc1Cl` [Compound 103] had an IC50 with HIV-1 of 0.022 µM. This molecule also had a CC50 in series [1] of over 100 µM. In turn, `N#Cc1ccc(Nc2nccc(Nc3c(Cl)cccc3Cl)n2)cc1` [Compound 65] yielded an IC50 in the series on HIV-1 of 0.18 µM. The molecule also registered a CC50 in series [1] of 0.2 µM. In the series with HIV-1, `N#Cc1ccc(Nc2cc(Cc3c(Cl)cccc3Cl)nc(N)n2)cc1` [Compound 45] gave an IC50 of 0.01 µM. In addition, in series [1] (setting [2]), the CC50 worked out at 56.3 µM. In the series on HIV-1, `Cc1cnc(Nc2ccc(C#N)cc2)nc1Nc1c(C)cc(C#N)cc1C` [Compound 83] gave an IC50 of 0.0008 µM. Consider `N#Cc1ccc(Nc2nc(Cc3c(Cl)cccc3Cl)cc(NCCCN3CCCC3=O)n2)cc1` [Compound 5], for which the CC50 in series [1] was found to be 56.2 µM.

The IC50 is the concentration that gives 50% inhibition. A high value points to a need for much substance. Usually CC50 stands for the concentration at which the toxic effect on the cells reaches its halfway point.
